Where “and” joins values, the source holds several entries; their conditions need not be identical. Equal values may be shown once.
Legend:
[1] = Fluorescence lifetime decay (time-resolved) of the donor-acceptor conjugate; format: physicochemical; details: for long lifetime: excitation of BH22IAM and energy transfer to fluorescein: terbium complex, excited at BH22IAM absorption (~340 nm), fluorescein emission 520 nm
Description: A short lifetime corresponding to the direct excitation of fluorescein (3.92 nsec) and a long lifetime corresponding to excitation of BH22IAM and energy transfer to fluorescein (524 nsec).
In another exemplary embodiment, the compounds of the invention emit light at an emission wavelength of the fluorophore attached to the metal chelate through the acceptor-linker. […] For example, compound 3, when coordinated to terbium and excited at a BH22IAM absorption wavelength (˜340 nm), the metal chelate emits at 520 nm, the characteristic wavelength of fluorescein with a lifetime of 524 nsec. The new lifetime is over 100-fold longer than the lifetime for a fluorescein solution that is directly excited (<5 nsec).
The 524 nsec of the conjugated fluorescein is acquired through direct excitation of the Tb-BH22IAM complex at 340 nm, which normally has a very long lifetime (2.6 msec), followed by energy transfer to the conjugated fluorescein and emission at the characteristic wavelength for fluorescein (520 nm).

[2] = Steady-state absorption and emission spectra; format: physicochemical; details: for emission wavelength / emission maxima: excited at BH22IAM absorption wavelength (~340 nm)
Description: FIG. 8 is a steady-state absorption spectrum of FITC-BH22IAM conjugate.

O=C(O)c1cc(NC(=S)NCCCCC2CN3CCNC(=O)c4cccc(c4O)C(=O)NCCN(CCNC(=O)c4cccc(c4O)C(=O)N2)CCN2CCNC(=O)c4cccc(c4O)C(=O)NCCN(CCNC(=O)c4cccc(c4O)C(=O)NCC2)CC3)ccc1-c1c2ccc(=O)cc-2oc2cc(O)ccc12 (stereo not shown) [4a]
long lifetime: excitation of BH22IAM and energy transfer to fluorescein [1]: 520 nsec and 524 nsec
absorption maximum (BH22IAM) [2]: 340 nm
absorption maximum (fluorescein) [2]: 490 nm
emission wavelength / emission maxima [2]: 519 nm and 520 nm

O=C(O)c1cc(NC(=S)NCCCCC2CN3CCNC(=O)c4cccc(c4O)C(=O)NCCN(CCNC(=O)c4cccc(c4O)C(=O)N2)CCN2CCNC(=O)c4cccc(c4O)C(=O)NCCN(CCNC(=O)c4cccc(c4O)C(=O)NCC2)CC3)ccc1-c1c2ccc(=O)cc-2oc2cc(O)ccc12 (stereo not shown) [compound 3]
lifetime relative to a directly excited fluorescein solution ([1]; 524 nsec versus <5 nsec): over 100 fold
long lifetime: excitation of BH22IAM and energy transfer to fluorescein [1]: 524 nsec
emission wavelength / emission maxima [2]: 520 nm
